Measurements from patent US11000033B2, “Ketone or oxime compound, and herbicide” (NISSAN CHEMICAL CORPORATION, priority 2014, dated 2021).

Experiments:
Format in all cases: in vivo
[1] = tested on: directly sowed rice plant; assay: Test Example 3: effect on crop by foliage application, Wagner pot (symbol b); details: application herbicide amount 320 g/ha, Table 24
Summary of the method: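 Wagner pot (1/10000 are), alluvial soil, submerged 0.1–0.5 cm; sown E. crus-galli var. crus-galli, L. chinensis, C. difformis, rice; greenhouse 25–30 °C.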

[2] = tested on: Digitaria ciliaris; assay: Test Example 4: herbicidal effect by soil treatment (symbol F); details: application herbicide amount 320 g/ha
Summary of the method: (§1)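 Seeds were sown in sterilized diluvial soil, covered with about 1.5 cm of soil, and the soil surface was sprayed with a water-diluted emulsion of the compound at a predetermined rate. Plants grew in a greenhouse at 25° C. to 30° C.; effects were scored visually 3 weeks after application.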

[3] = tested on: Echinochloa crus-galli var. crus-galli; assay: Test Example 4: herbicidal effect by soil treatment (symbol H); details: application herbicide amount 320 g/ha
Summary of the method: as §1

[4] = tested on: Alopecurus myosuroides; assay: Test Example 4: herbicidal effect by soil treatment (symbol J); details: application herbicide amount 320 g/ha
Summary of the method: as §1

[5] = tested on: Lolium multiflorum Lam.; assay: Test Example 4: herbicidal effect by soil treatment (symbol K); details: application herbicide amount 320 g/ha
Summary of the method: as §1

[6] = tested on: Stellaria media; assay: Test Example 4: herbicidal effect by soil treatment (symbol P); details: application herbicide amount 320 g/ha
Summary of the method: as §1

[7] = tested on: Veronica persica; assay: Test Example 4: herbicidal effect by soil treatment (symbol R); details: application herbicide amount 320 g/ha
Summary of the method: as §1

[8] = tested on: corn; assay: Test Example 4: effect on crop by soil treatment (symbol c); details: application herbicide amount 320 g/ha
Summary of the method: (§2)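 Sterilized diluvial soil, spot sowing, ~1.5 cm soil cover; greenhouse 25–30° C.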

[9] = tested on: soybean; assay: Test Example 4: effect on crop by soil treatment (symbol d); details: application herbicide amount 320 g/ha
Summary of the method: as §2

[10] = tested on: rice; assay: Test Example 4: effect on crop by soil treatment (symbol b); details: application herbicide amount 320 g/ha
Summary of the method: as §2

[11] = tested on: beet; assay: Test Example 4: effect on crop by soil treatment (symbol f); details: application herbicide amount 320 g/ha
Summary of the method: as §2

[12] = tested on: rapeseed; assay: Test Example 4: effect on crop by soil treatment (symbol g); details: application herbicide amount 320 g/ha
Summary of the method: as §2

[13] = tested on: Digitaria ciliaris; assay: Test Example 5: herbicidal effect by foliage application, plastic box (symbol F); details: 320 g/ha, 3 weeks after application
Summary of the method: (§3)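 Post-emergence spray; diluvial soil (sterilized), ~1.5 cm seed cover; greenhouse 25–30° C; 14-day-old plants; water-diluted emulsion at predetermined dose; visual score at 3 wk post-treatment.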

[14] = tested on: Setaria viridis; assay: Test Example 5: herbicidal effect by foliage application, plastic box (symbol G); details: 320 g/ha, 3 weeks after application
Summary of the method: as §3

[15] = tested on: Avena fatua; assay: Test Example 5: herbicidal effect by foliage application, plastic box (symbol I); details: 320 g/ha, 3 weeks after application
Summary of the method: as §3

[16] = tested on: Apera spica-venti; assay: Test Example 5: herbicidal effect by foliage application, plastic box (symbol L); details: 320 g/ha, 3 weeks after application
Summary of the method: as §3

[17] = tested on: Abutilon theophrasti; assay: Test Example 5: herbicidal effect by foliage application, plastic box (symbol M); details: 320 g/ha, 3 weeks after application
Summary of the method: as §3

[18] = tested on: Chenopodium album; assay: Test Example 5: herbicidal effect by foliage application, plastic box (symbol O); details: 320 g/ha, 3 weeks after application
Summary of the method: as §3

[19] = tested on: Stellaria media; assay: Test Example 5: herbicidal effect by foliage application, plastic box (symbol P); details: 320 g/ha, 3 weeks after application
Summary of the method: as §3

[20] = tested on: Veronica persica; assay: Test Example 5: herbicidal effect by foliage application, plastic box (symbol R); details: 320 g/ha, 3 weeks after application
Summary of the method: as §3

[21] = tested on: rice plant; assay: Test Example 5: effect on crop by foliage application, plastic box (symbol b); details: 320 g/ha, 3 weeks after application
Summary of the method: (§4)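 Foliage-application test plants come from spot sowing in sterilized diluvial soil under a soil layer of about 1.5 cm, grown at 25° C. to 30° C. in a greenhouse.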

[22] = tested on: wheat; assay: Test Example 5: effect on crop by foliage application, plastic box (symbol e); details: 320 g/ha, 3 weeks after application
Summary of the method: as §4

[23] = tested on: beet; assay: Test Example 5: effect on crop by foliage application, plastic box (symbol f); details: 320 g/ha, 3 weeks after application
Summary of the method: as §4

Compound: Cc1cc(Br)cc(C)c1C1=C(O)CC(CC(=O)C2CC2)C1=O (racemic) [10-004]
- b (directly sowed rice plant) effect on crop grade [1]: 5 (Herbicidal ratio of 90% or more (almost completely withered))
- Herbicidal effect grade, F: Digitaria ciliaris [2]: 5 (Herbicidal ratio of 90% or more (almost completely withered))
- Herbicidal effect grade, H: Echinochloa crus-galli var. crus-galli [3]: 5 (Herbicidal ratio of 90% or more (almost completely withered))
- Herbicidal effect grade, J: Alopecurus myosuroides [4]: 5 (Herbicidal ratio of 90% or more (almost completely withered))
- Herbicidal effect grade, K: Lolium multiflorum Lam. [5]: 5 (Herbicidal ratio of 90% or more (almost completely withered))
- Herbicidal effect grade, P: Stellaria media [6]: 0 (Herbicidal ratio of 5% or lower (almost no effect))
- Herbicidal effect grade, R: Veronica persica [7]: 0 (Herbicidal ratio of 5% or lower (almost no effect))
- Effect on crop grade, c: corn [8]: 5 (Herbicidal ratio of 90% or more (almost completely withered))
- Effect on crop grade, d: soybean [9]: 0 (Herbicidal ratio of 5% or lower (almost no effect))
- Effect on crop grade, b: directly sowed rice plant [10]: 5 (Herbicidal ratio of 90% or more (almost completely withered))
- Effect on crop grade, f: beet [11]: 0 (Herbicidal ratio of 5% or lower (almost no effect))
- Effect on crop grade, g: rapeseed [12]: 0 (Herbicidal ratio of 5% or lower (almost no effect))
- F: Digitaria ciliaris, herbicidal effect grade [13]: 5 (Herbicidal ratio of 90% or more (almost completely withered))
- G: Setaria viridis, herbicidal effect grade [14]: 5 (Herbicidal ratio of 90% or more (almost completely withered))
- I: Avena fatua, herbicidal effect grade [15]: 5 (Herbicidal ratio of 90% or more (almost completely withered))
- L: Apera spica-venti, herbicidal effect grade [16]: 5 (Herbicidal ratio of 90% or more (almost completely withered))
- M: Abutilon theophrasti, herbicidal effect grade [17]: 3 (Herbicidal ratio of 40% or higher and lower than 70%)
- O: Chenopodium album, herbicidal effect grade [18]: 0 (Herbicidal ratio of 5% or lower (almost no effect))
- P: Stellaria media, herbicidal effect grade [19]: 0 (Herbicidal ratio of 5% or lower (almost no effect))
- R: Veronica persica, herbicidal effect grade [20]: 3 (Herbicidal ratio of 40% or higher and lower than 70%)
- b: directly sowed rice plant, effect on crop grade [21]: 5 (Herbicidal ratio of 90% or more (almost completely withered))
- e: wheat, effect on crop grade [22]: 4 (Herbicidal ratio of 70% or higher and lower than 90%)
- f: beet, effect on crop grade [23]: 0 (Herbicidal ratio of 5% or lower (almost no effect))
